This is an account of results in patent US20170210751A1, “PRMT5 INHIBITORS AND USES THEREOF” (Epizyme, Inc., priority 2014, published 2017).

A value given as a limit tells only on which side of the number the result lay.

For one assay, the system named is Z-138 cell line. Kind of assay: Z-138 Proliferation Assay (Cell Titer Glo). Particulars: Homo sapiens, 120 h; Z-138 cells, 5 days incubation, ATP (Cell Titer Glo). It is filed as cell-based. The text has this: Z-138 Proliferation Assay
Z-138 suspension cells were purchased from ATCC (American Type Culture Collection, Manassas, Va.). RPMI/Glutamax medium, penicillin-streptomycin, heat inactivated fetal bovine serum were purchased from Life Technologies, Grand Island, N.Y., USA. V-bottom polypropylene 384-well plates were purchased from Greiner Bio-One, Monroe, N.C., USA. Cell culture 384-well white opaque plates were purchased from Perkin Elmer, Waltham, Mass., USA. Cell-Titer Glo® was purchased from Promega Corporation, Madison, Wis., USA. SpectraMax M5 plate reader was purchased from Molecular Devices LLC, Sunnyvale, Calif., USA.
Z-138 suspension cells were maintained in growth medium (RPMI 1640 supplemented with 10% v/v heat inactivated fetal bovine serum and cultured at 37° C. under 5% CO2. Under assay conditions, cells were incubated in assay medium (RPMI 1640 supplemented with 10% v/v heat inactivated fetal bovine serum and 100 units/mL penicillin-streptomycin) at 37° C. under 5% CO2.
For the assessment of the effect of compounds on the proliferation of the Z-138 cell line, exponentially growing cells were plated in 384-well white opaque plates at a density of 10,000 cells/ml in a final volume of 50 μl of assay medium. A compound source plate was prepared by performing triplicate nine-point 3-fold serial dilutions in DMSO, beginning at 10 mM (final top concentration of compound in the assay was 20 μM and the DMSO was 0.2%). A 100 nL aliquot from the compound stock plate was added to its respective well in the cell plate. […] After addition of compounds, assay plates were incubated for 5 days at 37° C., 5% CO2, relative humidity >90%.
Cell viability was measured by quantitation of ATP present in the cell cultures, adding 35 μl of Cell Titer Glo® reagent to the cell plates. Luminescence was read in the SpectraMax M5 microplate reader. The concentration of compound inhibiting cell viability by 50% was determined using a 4-parametric fit of the normalized dose response curves.
In general terms: In ATP-based viability assays light output follows the ATP content of the culture.

Another assay concerns the target T1, PRMT5/MEP50 (Homo sapiens, UniProt O14744).
T1 construct: Flag-PRMT5; made in house; host or cells: Spodoptera frugiperda (SF9) insect cells, baculovirus (pDEST8)
Put plainly: PRMT5 Biochemical Assay (PRMT5/MEP50 enzyme assay on peptide substrate, 3H-SAM Flashplate). Particulars: PRMT5/MEP50 4 nM, 3H-SAM 75 nM, peptide 40 nM, 30 min preincubation at 25 degrees Celsius. The method in brief:
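FLAG-PRMT5/His-MEP50 from Sf9 cells (4 nM) preincubated 30 min at 25 °C with compounds, then reacted with 75 nM 3H-SAM and 40 nM biotinylated histone H4 1-15 peptide in Bicine pH 7.6, 1% DMSO. Stopped with 600 uM cold SAM; streptavidin Flashplate capture, scintillation counts; % inhibition fitted to 3- or 4-parameter curve.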

T1 sequence (O14744 with tags, fused parts or gaps): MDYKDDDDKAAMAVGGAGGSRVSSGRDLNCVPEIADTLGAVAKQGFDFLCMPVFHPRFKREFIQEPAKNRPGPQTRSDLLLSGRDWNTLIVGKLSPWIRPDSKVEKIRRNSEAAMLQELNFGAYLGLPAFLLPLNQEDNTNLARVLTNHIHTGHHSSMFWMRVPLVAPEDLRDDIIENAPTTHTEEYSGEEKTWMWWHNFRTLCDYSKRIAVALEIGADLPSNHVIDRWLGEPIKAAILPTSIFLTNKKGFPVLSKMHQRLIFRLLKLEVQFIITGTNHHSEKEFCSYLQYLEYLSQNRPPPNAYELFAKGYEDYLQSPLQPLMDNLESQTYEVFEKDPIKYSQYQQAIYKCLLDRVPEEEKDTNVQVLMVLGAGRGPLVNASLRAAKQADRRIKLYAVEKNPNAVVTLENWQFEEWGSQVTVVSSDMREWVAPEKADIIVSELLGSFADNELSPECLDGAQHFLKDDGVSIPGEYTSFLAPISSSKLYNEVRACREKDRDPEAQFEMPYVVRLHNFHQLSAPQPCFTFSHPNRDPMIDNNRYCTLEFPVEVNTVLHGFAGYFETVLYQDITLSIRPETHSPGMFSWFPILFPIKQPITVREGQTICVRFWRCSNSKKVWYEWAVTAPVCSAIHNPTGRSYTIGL
T1 sequence (Q9BQA1 with tags, fused parts or gaps partner limits assumed): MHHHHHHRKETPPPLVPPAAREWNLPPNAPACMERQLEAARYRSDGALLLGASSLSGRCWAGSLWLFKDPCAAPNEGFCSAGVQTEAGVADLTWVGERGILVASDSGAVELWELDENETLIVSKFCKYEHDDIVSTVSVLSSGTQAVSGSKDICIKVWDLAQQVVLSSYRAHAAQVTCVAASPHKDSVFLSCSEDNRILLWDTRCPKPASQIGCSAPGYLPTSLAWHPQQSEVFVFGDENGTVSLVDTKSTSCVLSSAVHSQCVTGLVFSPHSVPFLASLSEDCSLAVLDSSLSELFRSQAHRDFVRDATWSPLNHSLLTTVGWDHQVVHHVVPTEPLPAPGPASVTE

With `Cn1cnc2c1CN(C[C@@H](O)CNC(=O)c1cc(NC3COC3)ncn1)CC2` [Compound 3-26, (S)—N-(2-hydroxy-3-(3-methyl-6,7-dihydro-3H-imidazo[4,5-c]pyridin-5(4H)-yl)propyl)-6-(oxetan-3-ylamino)pyrimidine-4-carboxamide], the EC50 (as a rule, the concentration needed to bring the measured effect to its halfway point) in the assay on Z-138 cell line was > 5 µM. Moreover, the IC50 (commonly the concentration that inhibits the measured activity by half) on PRMT5/MEP50 was > 10 µM.
In the assay with Z-138 cell line, `O=C(NC[C@H](O)CN1CCc2ncccc2C1)c1cc(NC2COC2)ncn1` [Compound 2-12, (S)—N-(3-(7,8-dihydro-1,6-naphthyridin-6(5H)-yl)-2-hydroxypropyl)-6-(oxetan-3-ylamino)pyrimidine-4-carboxamide] gave an EC50 of 1 to 10 µM. For the same compound, the IC50 on PRMT5/MEP50 lay in the range of 0.101 to 1 µM.
`CC(=O)N1CCC(Nc2cc(C(=O)NC[C@H](O)CN3CCc4[nH]ncc4C3)ccn2)CC1` [Compound 3-21]: the EC50 in the assay with Z-138 cell line is > 5 µM. At PRMT5/MEP50, the IC50 was 1 to 10 µM.
On to `O=C(NC[C@H](O)CN1CCc2[nH]nc(-c3ccccc3)c2C1)c1cc(NC2COC2)ncn1` [Compound 3-17, (S)—N-(2-hydroxy-3-(3-phenyl-6,7-dihydro-1H-pyrazolo[4,3-c]pyridin-5(4H)-yl)propyl)-6-(oxetan-3-ylamino)pyrimidine-4-carboxamide], for which, in the assay with Z-138 cell line, the EC50 is > 5 µM. Besides, at PRMT5/MEP50, the IC50 was > 10 µM.
For `CC(=O)N1CCC(Nc2cc(C(=O)NC[C@H](O)CN3CCc4sc(N)nc4C3)ccn2)CC1` [Compound 1-34], in the assay on Z-138 cell line, the EC50 was > 5 µM. In addition, the IC50 on PRMT5/MEP50 lay in the range of 0.101 to 1 µM.
On the same counts, the results for `CC(=O)N1CC(Nc2cc(C(=O)NC[C@H](O)CN3CCc4oc(C)nc4C3)ncn2)C1` [Compound 4-2, (S)-6-((1-acetylazetidin-3-yl)amino)-N-(2-hydroxy-3-(2-methyl-6,7-dihydrooxazolo[4,5-c]pyridin-5(4H)-yl)propyl)pyrimidine-4-carboxamide] are > 5 µM and > 10 µM.
As to `CC(=O)N1CC(Nc2cc(C(=O)NC[C@H](O)CN3CCCc4c3cnn4C)ncn2)C1` [Compound 3-46], the EC50 with Z-138 cell line was > 5 µM. Besides, the IC50 on PRMT5/MEP50 is > 10 µM.
For the compound `Cn1ncc2c1CCCN2C[C@@H](O)CNC(=O)c1cc(NC2COC2)ncn1` [Compound 3-40], the EC50 with Z-138 cell line was > 5 µM. Also, the IC50 at PRMT5/MEP50 was > 10 µM.
Regarding `CC(=O)N1CCC(Nc2cc(C(=O)NC[C@H](O)CN3CCc4scnc4C3)ncn2)CC1` [Compound 1-32], the EC50 with Z-138 cell line is > 5 µM. Also, the IC50 at PRMT5/MEP50 lay within 1 to 10 µM.
On the same counts, the results for `O=C(NC[C@H](O)CN1CCc2ccncc2C1)c1cc(NC2COC2)ncn1` [Compound 2-24] are > 5 µM and 1 to 10 µM.
Regarding `O=C(COc1cccc2cccnc12)NCC(O)CN1CCc2ccncc2C1` (centres unmarked) [Compound 2-8, N-[2-hydroxy-3-(1,2,3,4-tetrahydro-2,7-naphthyridin-2-yl)propyl]-2-(quinolin-8-yloxy)acetamide], the EC50 with Z-138 cell line was > 5 µM. Moreover, the IC50 on PRMT5/MEP50 lay within 1 to 10 µM.
The like results for `CC(=O)N1CCC(Nc2cc(C(=O)NC[C@H](O)CN3CCc4sc(C)nc4C3)ccn2)CC1` [Compound 1-33] were, in that order, > 5 µM and 1 to 10 µM.
On the same counts, the results for `CC(=O)N1CCC(Nc2cc(C(=O)NC[C@H](O)CN3CCc4[nH]cnc4C3)ncn2)CC1` [Compound 3-34, (S)-6-((1-acetylpiperidin-4-yl)amino)-N-(3-(6,7-dihydro-1H-imidazo[4,5-c]pyridin-5(4H)-yl)-2-hydroxypropyl)pyrimidine-4-carboxamide] are > 5 µM and > 10 µM.
Consider `CC(=O)N1CCC(Nc2cc(C(=O)NC[C@H](O)CN3CCc4cn[nH]c4C3)ccn2)CC1` [Compound 3-50], for which the EC50 in the assay on Z-138 cell line was > 5 µM. Moreover, the IC50 at PRMT5/MEP50 was > 10 µM.
With `Nc1nc2c(s1)CN(C[C@@H](O)CNC(=O)c1cc(NC3COC3)ncn1)CC2` [Compound 1-23], the EC50 in the assay with Z-138 cell line was > 5 µM. For the same compound, on PRMT5/MEP50, the IC50 is > 10 µM.
Take `O=C(COc1cccc2cccnc12)NCC(O)CN1CCc2ncccc2C1` (centres unmarked) [Compound 2-6, N-[2-hydroxy-3-(5,6,7,8-tetrahydro-1,6-naphthyridin-6-yl)propyl]-2-(quinolin-8-yloxy)acetamide]: the EC50 with Z-138 cell line was > 5 µM. For the same compound, the IC50 at PRMT5/MEP50 lay in the range of 1 to 10 µM.
